No end group written: not given here.
How the values were obtained:
E. faecalis LMGT 3567 = test system: E. faecalis LMGT 3567
Procedure: (§1) Bacterial strains, growth conditions, bacteriocins and antimicrobial assays. All the strains (see below) used in minimal inhibitory concentration (MIC) assays (Varahan et al., 2014, M. Bio. 5:e01726-01714) were grown in BHI medium (Oxoid) at 30° C. without shaking. A collection of E. faecium strains isolated from blood in patients from different European hospitals was received from Department of Medical Microbiology, University Medical Center Utrecht, the Netherlands. […] Synthesized peptides were solubilized to concentrations of 10.0-0.1 mg/ml in 0.1% (vol/vol) trifluoroacetic acid and stored at −20° C. until use. […] Bacteriocin activity was determined by microtiter plate assay as previously described (Holo et al., 1991, J. Bacteriol., 173:3879-3887). The MIC was defined as the minimal bacteriocin concentration that inhibited the growth of the indicator strain by at least 50% (50% of the turbidity of the control culture without bacteriocin) in 200 μl culture. CD Spectroscopy Circular dichroism (CD) spectra were recorded using a Jasco J-810 spectropolarimeter (Jasco International Co) calibrated with D-camphor-10-sulfonate (Icatayama Chemical). All measurements were made using a quartz cuvette (Sterna) with 0.1 cm path length. Samples were scanned five times with a scanning rate of 50 nm/min with a bandwidth of 0.5 nm and response time of 1 s over the wavelength range 190-250 nm. Spectra were recorded at different (30 and 50%) trifluoroethanol (TFE) (Aldridge) concentrations at 25° C. The approximate α-helical content of the protein was estimated from its molar ellipticity at 222 nm (Scholtz et al., 1991, Biopolymers 31:1463-1470). NMR Spectroscopy The experiments were run on a sample containing 1.0 mM EntK1, 50% D3-TFE (99.5% D) (Aldrich), Milli-Q water and 0.2 mM of 4,4-dimethyl-4-silapentane-1-sulfonic acid (DSS) (Larodan). 2D NOESY (Jeener et al., 1979, J. Magn. Reson., 71:4546-4553), 2D TOCSY (Braunschweiler and Ernst, 1983, J. Magn. Reson., 53:521-528), 2D DQCOSY, ^15N-HSQC (Davis et al., 1992, J. Magn. Reson., 98:207-216) and ^13C-HSQC (Hurd, 1991, J. Magn. Reson., 91:648-653) were recorded. The data was acquired on a 600 MHz Bruker Avance II spectrometer with four channels and a 5 mm TCI cryoprobe (Bruker Biospin). NOESY spectra with mixing times between 120 ms and 300 ms were obtained for both samples. TOCSY mixing times of 15-80 ms were used. The experiments were run at 298.15 K. Spectra were processed using the Topspin program (Bruker Biospin). 4,4-dimethyl-4-silapentane-1-sulfonic acid (DSS) was used as a chemical shift standard, and ^15N and ^13C data were referenced using frequency ratios as described in (Wishart et al., 1995, J. Biomol. NMR., 6:135-140). For visualization, assignment and integration of the spectra the computer program CARA was used (Keller, 2004, The Computer Aided Resonance Assignment Tutorial. CANTINA Verlag, Goldau, Switzerland). The spectra were assigned using standard methods. Dihedral angle restraints were obtained from the chemical shift values using the program TALOS-N(Shen and Bax, 2013, J. Biomol. NMR, 56:227-241). Nuclear Overhauser effect (NOE) distance restraints were calculated from the peak volumes in the NOESY spectra with NOESY mixing time of 200 ms. All structure calculations were made using the structure calculation program CYANA 2.1 (Guntert et al., 1997, J. Mol. Biol., 273:283-298; Herrmann et al., 2002, J. Mol. Biol., 319:209-227). The annealing macro in CYANA calculated 100 structures. The 20 structures with the lowest energy were kept and analyzed further. The root-mean-square deviation (RMSD) was calculated and the structures were visualized using MolMol (Koradi et al., 1996, J. Mol. Graph., 14:51-55, 29-32). Generation of bacteriocin resistant mutants of E. faecalis and E. faecium.

S. aureus LMGT 3272 = test system: S. aureus LMGT 3272
Procedure: as §1

E. faecium LMGT 3104 = test system: E. faecium LMGT 3104
Procedure: as §1

E. faecium LMGT 3313 = test system: E. faecium LMGT 3313
Procedure: as §1

B. cereus LMGT 2731 = test system: B. cereus LMGT 2731
Procedure: as §1

[1] = test system: Enterococcus. faecalis LMGT 3199
Procedure: as §1

L. curvatus LMGT 2355 = test system: L. curvatus LMGT 2355
Procedure: as §1

S. aureus LMGT 3258 = test system: S. aureus LMGT 3258
Procedure: as §1

L. cremoris LMGT 2057 = test system: L. cremoris LMGT 2057
Procedure: as §1

E. faecalis LMGT 3200 = test system: E. faecalis LMGT 3200
Procedure: as §1

B. cereus LMGT 3025 = test system: B. cereus LMGT 3025
Procedure: as §1

E. faecalis LMGT 3370 = test system: E. faecalis LMGT 3370
Procedure: as §1

E. faecium LMGT 2787 = test system: E. faecium LMGT 2787
Procedure: as §1

E. faecium LMGT 3192 = test system: E. faecium LMGT 3192
Procedure: as §1

E. faecalis LMGT 3359 = test system: E. faecalis LMGT 3359
Procedure: as §1

E. faecalis LMGT 3143 = test system: E. faecalis LMGT 3143
Procedure: as §1

E. faecium LMGT 3193 = test system: E. faecium LMGT 3193
Procedure: as §1

S. aureus LMGT 3266 = test system: S. aureus LMGT 3266
Procedure: as §1

[2] = test system: S. pneumoniae ds220 non-induced; settings: WT rseP
Procedure: as §1

L. lactis LMGT 2084 = test system: L. lactis LMGT 2084
Procedure: as §1

E. faecium LMGT 3599 = test system: E. faecium LMGT 3599
Procedure: as §1

E. faecalis LMGT 3572 = test system: E. faecalis LMGT 3572
Procedure: as §1

B. cercus LMGT 2735 = test system: B. cercus LMGT 2735
Procedure: as §1

| Sequence | MIC 50 (E. faecalis LMGT 3567) [µM] | MIC 50 (S. aureus LMGT 3272) [µM] | MIC 50 (E. faecium LMGT 3104) [µM] | MIC 50 (E. faecium LMGT 3313) [µM] | MIC 50 (B. cereus LMGT 2731) [µM] | MIC 50 [1] [µM] | MIC 50 (L. curvatus LMGT 2355) [µM] | MIC 50 (S. aureus LMGT 3258) [µM] | MIC 50 (L. cremoris LMGT 2057) [µM] | MIC 50 (E. faecalis LMGT 3200) [µM] | MIC 50 (B. cereus LMGT 3025) [µM] | MIC 50 (E. faecalis LMGT 3370) [µM] | MIC 50 (E. faecium LMGT 2787) [µM] | MIC 50 (E. faecium LMGT 3192) [µM] | MIC 50 (E. faecalis LMGT 3359) [µM] | MIC 50 (E. faecalis LMGT 3143) [µM] | MIC 50 (E. faecium LMGT 3193) [µM] | MIC 50 (S. aureus LMGT 3266) [µM] | MIC [2] [µM] | MIC 50 (L. lactis LMGT 2084) [µM] | other results |
| --- | --- | --- | --- | --- | --- | --- | --- | --- | --- | --- | --- | --- | --- | --- | --- | --- | --- | --- | --- | --- | --- |
| MKTILRFVAGYDIASHKKKTGGYPWERGKA [LsbB, reference compound] | >7 | >7 | >7 | >7 | >7 | >7 | >7 | >7 | >7 | >7 | >7 | >7 | >7 | >7 | >7 | >7 | >7 | >7 | >7 | >7 | MIC 50 (E. faecium LMGT 3599): >7 µM; MIC 50 (E. faecalis LMGT 3572): >7 µM; MIC 50 (B. cercus LMGT 2735): >7 µM |
| MKFKFNPTGTIVKKLTQYEIAWFKNKHGYYPWEIPRC [EntK1] | >5.5 | >5.5 | 0.01 | 0.085 | >5.5 | 5.5 | 5.5 | >5.5 | >5.5 | >5.5 | >5.5 | 5.5 | 0.02 | 0.02 | >5.5 | >5.5 | 0.085 | >5.5 | >5.5 | >5.5 | MIC 50 (E. faecium LMGT 3599): 0.085 µM; MIC 50 (E. faecalis LMGT 3572): >5.5 µM; MIC 50 (B. cercus LMGT 2735): >5.5 µM |
| MLAKIKAMIKKFPNPYTLAAKLTTYEINWYKQQYGRYPWERPVA [EntEJ97] | 0.295 | 1.175 | 0.145 | 0.145 | >4.7 | 0.145 | 0.145 | >4.7 | 0.145 | 0.295 | 2.3 | 0.145 | 0.145 | 0.295 | 0.145 | 0.145 | 0.145 | 1.175 | >4.5 | 0.295 | MIC 50 (E. faecium LMGT 3599): 0.145 µM; MIC 50 (E. faecalis LMGT 3572): 0.145 µM; MIC 50 (B. cercus LMGT 2735): >4.7 µM |

— patent publication US11648289B2, “Antibacterial method” (priority 2016, dated 2023)
